Patent US20110027251A1, “NOVEL USES FOR 4-PHENYLBUTYRATE (4PBA) AND ITS PHARMACEUTICALLY ACCEPTABLE SALTS” (priority 2008, published 2011)

Experiments:
Type in all cases: in vivo
Tg2576 transgenic mice = experiment: Morris water maze (spatial learning and memory)
Description: (§1) We used Tg2576 transgenic mice with Alzheimer's Disease expressing the 695-aa human APP isoform which contains the double APPswe Swedish mutation [(APP695) Lys670→Asn, Met671→Leu] triggered by a […] hamster promoter. In the Tg2576 transgenic mice suffering from Alzheimer's disease used in the experimental murine model, the Aβ peptide content in the brain accumulates exponentially between their 7th and 12th months of life. […] Therefore 16 months old Tg2576 transgenic mice females were treated once a day intraperitoneally with 200 mg/kg 4PBA or its vehicle during 5 weeks. To do this a 4PBA solution was prepared titrating equimolecular amounts of 4-phenylbutyric acid (Sigma) and sodium hydroxide at a pH: 7.4. A group of normal mice, not genetically altered, from same similar strains and ages was used as control group. All the clinical test procedures were performed according to the European and the Spanish legislation (86/609/CEE; RD 1201/2005).
The Morris water maze was used to evaluate the operational and reference memory functions in Tg2576 transgenic mice treated with 4 PBA as described previously in the literature (Ribe et al., 2005). Groups of Tg2576 female mice treated with 4PBA (n=6), vehicle (n=7), and non-transgenic litter siblings (n=10) were subjected to spatial learning and memory tests using the Morris water maze when they became 16 months old. The maze consisted of a circular pool filled with water at 20° C. The mice received prior training in a pool with a visible platform during 3 consecutive days (8 tests per day) being able to swim towards a platform raised above the water level. The training with hidden platform took 9 consecutive days (4 tests per day) during which all mice were allowed 60 seconds to find the platform submerged 1cm below the water surface. […] All the trials were monitored with a VHS camera and the Watermaze software to analyze escape latencies and the percentage of time of occupation of each pool quadrant during prior tests (using the Ethovision software, Wageninge, Netherlands). […]

Aβ40 = Aβ40 level in cerebral cortex, sandwich ELISA; conditions: Tg2576 mice, 200 mg/kg i.p. 5 weeks; compared with vehicle-treated transgenic mice (FIG. 2A)
Description: as §1, with “A group of normal mice, not genetically altered, from same similar strains and ages was used as control group. All the clinical test procedures were performed according to the European and the Spanish legislation (86/609/CEE; RD 1201/2005).” left out
(§2) Mice were sacrificed 24 hours after performing the last test in the Morris water maze. […] Then the levels of Aβ40 and Aβ42 in the cerebral cortex were analyzed by a sandwich type ELISA test.
(§3) The cerebral cortexes were homogenized in a buffer containing 5 M guanidine HCl and 50 mM Tris HCl at a pH=8, protease inhibitors (Roche's CompleteTM Protease Inhibitor Cocktail), and phosphatase inhibitors (0.1 mM Na3VO4, 1 mM NaF). […] Aliquots of the supernatant were freeze-dried at −80° C. and the protein concentration determined using the Bradford method with the Bio-Rad kit. Aβ42 levels were measured with an extra sensitive sandwich-type ELISA kit from Biosource (Camarillo, Calif., USA). […]

Aβ42 = Aβ42 level in cerebral cortex, sandwich ELISA; conditions: Tg2576 mice, 200 mg/kg i.p. 5 weeks; compared with vehicle-treated transgenic mice (FIG. 2A)
Description: as §1, with “A group of normal mice, not genetically altered, from same similar strains and ages was used as control group. All the clinical test procedures were performed according to the European and the Spanish legislation (86/609/CEE; RD 1201/2005).” left out
as §2, §3

[1] = system: tau phosphorylated at Ser-202/Thr-205 (AT8); experiment: Western blot of phosphorylated tau (AT8) in hippocampus; conditions: Tg2576 mice, 200 mg/kg i.p. 5 weeks; compared with non-transgenic mice (FIG. 3A)
Description: (§4) We used Tg2576 transgenic mice with Alzheimer's Disease expressing the 695-aa human APP isoform which contains the double APPswe Swedish mutation [(APP695) Lys670→Asn, Met671→Leu] triggered by a […] hamster promoter. In the Tg2576 transgenic mice suffering from Alzheimer's disease used in the experimental murine model, the Aβ peptide content in the brain accumulates exponentially between their 7th and 12th months of life. […] Therefore 16 months old Tg2576 transgenic mice females were treated once a day intraperitoneally with 200 mg/kg 4PBA or its vehicle during 5 weeks. […]
(§5) NaF) spun at 14,000×g, 4° C. for 20 min and the aliquots obtained from the supernatant were then freeze-dried at −80° C. […] Protein concentration was determined in both cases (using the Bradford test from Bio-Rad) and the aliquots stored at −80° C. until further use. […]
(§6) To carry out the Western Blot analyses, protein samples were mixed in buffers having the same volumes (2×Laemmli) resolved in SDS-polyacrylamide gels and transferred to a nitrocellulose membrane. […] After two washings in PBS/Tween-20 or TBS/Tween20 and one washing in PBS or TBS, immunolabelled protein bands were detected using an anti-rabbit or anti-mouse HRP conjugate (Santa Cruz, 1:5000 dilution) followed by a chemiluminescence system (ECL Amersham Biosciences), and autoradiographic exposure to HyperfilmTMECL (Amersham Biosciences). […]

[2] = system: GSK3b phosphorylated at Ser 9; experiment: Western blot of inactive GSK3b phosphorylated at Ser 9 in hippocampus; conditions: Tg2576 mice, 200 mg/kg i.p. 5 weeks; compared with vehicle-treated transgenic mice (FIG. 3B)
Description: as §4, §5, §6

GRP78 = experiment: Western blot of GRP78 in hippocampus; conditions: Tg2576 mice, 200 mg/kg i.p. 5 weeks; compared with non-transgenic mice (FIG. 4)
Description: as §4, §5, §6

histone 4 (H4) = experiment: Western blot of acetylated histone 4 in cortex; conditions: Tg2576 mice, 200 mg/kg i.p. 5 weeks; cortex extracts (FIG. 5)
Description: as §4, with “weeks. To do this a 4PBA solution was prepared titrating equimolecular amounts of 4-phenylbutyric acid (Sigma) and sodium hydroxide at a pH: 7.4.” for “weeks.”
To carry out the Western Blot analyses, protein samples were mixed in buffers having the same volumes (2×Laemmli) resolved in SDS-polyacrylamide gels and transferred to a nitrocellulose membrane. […] After two washings in PBS/Tween-20 or TBS/Tween20 and one washing in PBS or TBS, immunolabelled protein bands were detected using an anti-rabbit or anti-mouse HRP conjugate (Santa Cruz, 1:5000 dilution) followed by a chemiluminescence system (ECL Amersham Biosciences), and autoradiographic exposure to HyperfilmTMECL (Amersham Biosciences). The signals were quantified using the Scion Image program (Scion Corporation).

[3] = system: GluR1 subunit of the AMPA receptor; experiment: Western blot of GluR1 in membrane enriched hippocampal protein extracts; conditions: Tg2576 mice, 200 mg/kg i.p. 5 weeks, vehicle 81.18±9.5%, non-transgenic 100.0±6.5% (FIG. 6)
Description: as §4, §5, §6

PSD95 = experiment: Western blot of PSD95 in membrane enriched hippocampal protein extracts; conditions: Tg2576 mice, 200 mg/kg i.p. 5 weeks; membrane enriched hippocampal extracts (FIG. 6)
Description: as §4, §5, §6

MAP-2 = experiment: Quantitative western blot of MAP-2 in hippocampal extracts; conditions: Tg2576 mice, 200 mg/kg i.p. 5 weeks; untreated Tg2576 54.9±10.7, non-transgenic 100.0±14.9 (FIG. 6)
Description: as §4, §5, §6

SMILES: O=C([O-])CCCc1ccccc1.[Na+] [4PBA, 4-phenylbutyric acid]
- proficiency in Morris water maze, invisible platform (escape latency) (Tg2576 transgenic mice; 16 month old Tg2576 female mice, 200 mg/kg i.p. once a day for 5 weeks, compared with non-transgenic control mice of same age (FIG. 1B)): did not differ
- escape latencies, visible platform training (Tg2576 transgenic mice; Tg2576 mice, 200 mg/kg i.p. 5 weeks, first training tests with visible platform (FIG. 1A)): did not differ significantly
- percentage of time spent in the target quadrant (memory retention) (Tg2576 transgenic mice; Tg2576 mice, 200 mg/kg i.p. 5 weeks, platform removed, compared with control group of same age (FIG. 1C)): did not differ
- Aβ40 levels in cerebral cortex (Aβ40): no difference was observed
- Aβ42 levels in cerebral cortex (Aβ42): no difference was observed
- phosphorylated tau at the AT8 site in hippocampus [1]: no differences were found
- levels of inactive GSK3b phosphorylated at Ser 9 in hippocampus [2]: higher
- GRP78 levels in hippocampus (GRP78): did not differ
- acetylation of cortical histone 4 (H4) (histone 4 (H4)): induction of acetylation
- expression levels of the GluR1 subunit of the AMPA receptor [3]: 161.37±27.5%
- expression of PSD95 levels (PSD95): induced significantly
- MAP-2 expression levels (MAP-2): 77.7±11.6
